Experimental data from patent US11524966B1 (Valo Early Discovery, Inc., priority 2017, dated 2022).

molecular target: T1, USP28 (His-tagged USP28-FL-mammalian) (Homo sapiens, UniProt Q96RU2); assay: Ubiquitin-Rhodamine 110 Assay for USP28 Activity, Example A-1(a); type: biochemical; details: Ubiquitin-Rhodamine 110 assay, Example A-1(a); read-out: USP28 A-1(a) IC50 range
T1 construct: Expression of USP28 (1-1077)-TEV-6*His (pTT5 vector); made in house; host or cells: Expi293f cells (pTT5 vector)
T1 sequence (Q96RU2 1-1077): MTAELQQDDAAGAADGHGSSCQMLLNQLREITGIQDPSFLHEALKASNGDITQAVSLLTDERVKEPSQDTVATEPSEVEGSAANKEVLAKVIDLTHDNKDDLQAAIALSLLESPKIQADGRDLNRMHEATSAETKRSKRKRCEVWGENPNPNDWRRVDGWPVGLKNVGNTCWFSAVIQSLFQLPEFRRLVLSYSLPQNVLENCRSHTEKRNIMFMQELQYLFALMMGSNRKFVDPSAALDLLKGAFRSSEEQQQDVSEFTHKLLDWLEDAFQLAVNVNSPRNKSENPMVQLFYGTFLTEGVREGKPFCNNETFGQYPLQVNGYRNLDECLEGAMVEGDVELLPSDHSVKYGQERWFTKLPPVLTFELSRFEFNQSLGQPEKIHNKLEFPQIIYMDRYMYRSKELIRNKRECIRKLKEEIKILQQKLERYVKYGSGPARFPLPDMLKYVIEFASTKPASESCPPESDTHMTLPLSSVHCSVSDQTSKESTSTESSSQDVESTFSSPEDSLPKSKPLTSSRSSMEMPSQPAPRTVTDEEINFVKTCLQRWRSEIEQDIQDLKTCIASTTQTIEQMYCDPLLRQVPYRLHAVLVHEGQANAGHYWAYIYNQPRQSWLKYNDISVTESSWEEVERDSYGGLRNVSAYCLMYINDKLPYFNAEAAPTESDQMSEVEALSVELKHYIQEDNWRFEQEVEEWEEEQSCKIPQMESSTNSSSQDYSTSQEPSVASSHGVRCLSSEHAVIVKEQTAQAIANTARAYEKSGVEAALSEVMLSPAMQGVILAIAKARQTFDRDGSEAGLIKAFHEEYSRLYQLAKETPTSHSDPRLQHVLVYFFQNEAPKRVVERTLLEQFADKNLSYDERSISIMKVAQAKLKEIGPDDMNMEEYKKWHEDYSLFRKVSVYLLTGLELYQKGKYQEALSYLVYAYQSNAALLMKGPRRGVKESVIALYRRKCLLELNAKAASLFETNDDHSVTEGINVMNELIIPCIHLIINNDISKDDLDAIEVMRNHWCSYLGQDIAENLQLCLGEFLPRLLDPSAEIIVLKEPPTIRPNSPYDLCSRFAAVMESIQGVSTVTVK
How it was run: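 IC50 from 4-parameter logistic fit of percent inhibition versus no-enzyme and DMSO controls; compounds 25 μM to 1.3 nM, 3-fold. Ub-Rh110 cleavage (25 nM, below Km) by […] mammalian-expressed USP28-FL-His ran 45 min at room temperature, stopped with 10 mM citric acid, read ex 485/em 535.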

Compound | IC50 [nM]
Cc1nc2sc(C(=O)N[C@H]3COc4cc(N5CCNCC5)c(F)c(F)c4C3)c(N)c2s1 [Example 66, (R)-6-amino-N-(5,6-difluoro-7-(piperazin-1-yl)chroman-3-yl)-2-methylthieno[2,3-d]thiazole-5-carboxamide] | 1 to 50
C[C@H](Nc1ccc(C(=O)N[C@H]2COc3cc(N4CCNCC4)ccc3C2)cn1)c1ccccc1 [Example 53, 6-(((S)-1-phenylethyl)amino)-N-((R)-7-(piperazin-1-yl)chroman-3-yl)nicotinamide] | > 2000
O=C(N[C@H]1COc2cc(N3CCNCC3)ccc2C1)c1cnc2c(c1)CC[C@@H]2O [Example 58, (S)-7-hydroxy-N-((R )-7-(piperazin-1-yl)chroman-3-yl)-6,7-dihydro-5H-cyclopenta[b]pyridine-3-carboxamide] | 200 to 2000
Cc1ccc2c(N)c(C(=O)N[C@H]3CCc4nc(N5CCNCC5)ccc4C3)sc2n1 (single isomer, unassigned) [Example 23-7] | 1 to 50
Cc1ccc2c(N)c(C(=O)N[C@H]3COc4cc(N5C[C@H]6CNC[C@@H]6C5)ccc4C3)sc2n1 [Example 43, 3-amino-N-((R)-7-((3aR,6aR)-hexahydropyrrolo[3,4-c]pyrrol-2(1H)-yl)chroman-3-yl)-6-methylthieno[2,3-b]pyridine-2-carboxamide] | 200 to 2000
Cc1ccc2c(N)c(C(=O)N[C@H]3COc4cc([C@@H]5CCNC[C@@H]5F)ccc4C3)sc2n1 [Example 83, 3-amino-N-((R)-7-((3R,4S)-3-fluoropiperidin-4-yl)chroman-3-yl)-6-methylthieno[2,3-b]pyridine-2-carboxamide] | 1 to 50
Cc1ccc2c(N)c(C(=O)N[C@H]3COc4cc([C@@H]5CCNC[C@@H]5O)ccc4C3)sc2n1 [Example 63, 3-amino-N-((R)-7-((3R,4S)-3-hydroxypiperidin-4-yl)chroman-3-yl)-6-methylthieno[2,3-b]pyridine-2-carboxamide] | 1 to 50
C[C@@H](Nc1ccc(C(=O)N[C@H]2COc3cc(N4CCNCC4)ccc3C2)cn1)c1ccccc1 [Example 54, 6-(((R)-1-phenylethyl)amino)-N-((R)-7-(piperazin-1-yl)chroman-3-yl)nicotinamide] | > 2000
Cc1ccc2c(N)c(C(=O)N[C@H]3COc4cc(N5CC6CNCC(C5)O6)c(F)c(F)c4C3)sc2n1 [Example 79, N-((3R)-7-(9-oxa-3,7-diazabicyclo[3.3.1]nonan-3-yl)-5,6-difluorochroman-3-yl)-3-amino-6-methylthieno[2,3-b]pyridine-2-carboxamide] | 1 to 50
Cc1ccc2c(N)c(C(=O)N[C@H]3COc4cc(N5C[C@H]6CC[C@@H]5CN6)ncc4C3)sc2n1 [Example 76, N-((R)-7-((1 R,4R)-2,5-diazabicyclo[2.2.2]octan-2-yl)-3,4-dihydro-2H-pyrano[3,2-c]pyridin-3-yl)-3-amino-6-methylthieno[2,3-b]pyridine-2-carboxamide] | 1 to 50
O=C(N[C@H]1COc2cc(N3CC4CCC(C3)N4)ccc2C1)c1cnc2c(c1)CCCO2 [Example 51, N-((3R)-7-(3,8-diazabicyclo[3.2.1]octan-3-yl)chroman-3-yl)-3,4-dihydro-2H-pyrano[2,3-b]pyridine-6-carboxamide] | 200 to 2000
O=C(N[C@H]1COc2cc(N3CC4CCC(C3)N4)ccc2C1)c1cnc2c(c1)CCCN2 [Example 50, N-((3R)-7-(3,8-diazabicyclo[3.2.1]octan-3-yl)chroman-3-yl)-5,6,7,8-tetrahydro-1,8-naphthyridine-3-carboxamide] | 50 to 200
Cc1ccc2c(N)c(C(=O)N[C@H]3CCc4nc(N5CCN[C@H](C)C5)ccc4C3)sc2n1 (single isomer, unassigned) [Example 23-16] | 1 to 50
C[C@@H]1CCc2cc(C(=O)N[C@H]3COc4cc(N5CC6CCC(C5)N6)ccc4C3)cnc2N1 [Example 74, (7R)-N-((3R)-7-(3,8-diazabicyclo[3.2.1]octan-3-yl)chroman-3-yl)-7-methyl-5,6,7,8-tetrahydro-1,8-naphthyridine-3-carboxamide] | 50 to 200
Cc1ccc2c(N)c(C(=O)N[C@H]3CCc4nc(N5CC6CCC(C5)N6)cc(F)c4C3)sc2n1 [Example 23-18, N-((6S)-2-(3,8-diazabicyclo[3.2.1]octan-3-yl)-4-fluoro-5,6,7,8-tetrahydroquinolin-6-yl)-3-amino-6-methylthieno[2,3-b]pyridine-2-carboxamide] | 1 to 50
Cc1ccc2c(N)c(C(=O)N[C@H]3COc4cc([C@@H]5CCNCC5(F)F)ccc4C3)sc2n1 [Example 70, 3-amino-N-((R)-7-((S)-3,3-difluoropiperidin-4-yl)chroman-3-yl)-6-methylthieno[2,3-b]pyridine-2-carboxamide] | 1 to 50
CO[C@H]1CN(c2cc(F)c3c(c2F)OC[C@H](NC(=O)c2sc4nc(C)ccc4c2N)C3)C[C@@H]1N [Example 87, 3-amino-N-((R)-7-((3S,4S)-3-amino-4-methoxypyrrolidin-1-yl)-5,8-difluorochroman-3-yl)-6-methylthieno[2,3-b]pyridine-2-carboxamide] | 1 to 50
Cc1ccc2c(N)c(C(=O)N[C@H]3COc4cc([C@H]5CCNCC5(F)F)ccc4C3)sc2n1 [Example 69, 3-amino-N-((R)-7-((R)-3,3-difluoropiperidin-4-yl)chroman-3-yl)-6-methylthieno[2,3-b]pyridine-2-carboxamide] | 1 to 50
Cc1ccc2c(N)c(C(=O)N[C@H]3COc4c(F)c(N5CC6CNCC(C5)O6)cc(F)c4C3)sc2n1 [Example 78, N-((3R)-7-(9-oxa-3,7-diazabicyclo[3.3.1]nonan-3-yl)-5,8-difluorochroman-3-yl)-3-amino-6-methylthieno[2,3-b]pyridine-2-carboxamide] | 1 to 50
Cc1ccc2c(N)c(C(=O)N[C@H]3CCc4nc(N5CCN[C@@H](C)C5)ccc4C3)sc2n1 (single isomer, unassigned) [Example 23-15] | 1 to 50
Cc1nc2sc(C(=O)N[C@H]3COc4c(F)c(N5CCNCC5)cc(F)c4C3)c(N)c2s1 [Example 56, (R)-6-amino-N-(5,8-difluoro-7-(piperazin-1-yl)chroman-3-yl)-2-methylthieno[2,3-d]thiazole-5-carboxamide] | 1 to 50
Cc1cnc2c(N)c(C(=O)N[C@H]3COc4c(C#N)c(N5CCNCC5)cc(F)c4C3)sc2n1 [Example 60, (R)-7-amino-N-(8-cyano-5-fluoro-7-(piperazin-1-yl)chroman-3-yl)-3-methylthieno[2,3-b]pyrazine-6-carboxamide] | 50 to 200
Cc1ccc2c(N)c(C(=O)N[C@H]3CCc4nc(N5CCNCC5)c(F)cc4C3)sc2n1 (single isomer, unassigned) [Example 30-1] | 1 to 50
Cc1ccc2c(N)c(C(=O)N[C@H]3CCc4nc(N5C[C@@H](N)[C@H](C(F)F)C5)ccc4C3)sc2n1 [Example 25, 3-Amino-N-[(6S)-2-[(3S,4R)-3-amino-4-(difluoromethyl)pyrrolidin-1-yl]-5,6,7,8-tetrahydroquinolin-6-yl]-6-methylthieno[2,3-b]pyridine-2-carboxamide] | 50 to 200
CCc1cnc2sc(C(=O)N[C@H]3COc4cc(N5CCNCC5)ccc4C3)c(N)c2n1 [Example 36, (R)-7-amino-2-ethyl-N-(7-(piperazin-1-yl)chroman-3-yl)thieno[2,3-b]pyrazine-6-carboxamide] | 200 to 2000
Cc1cc(C)c2c(N)c(C(=O)N[C@H]3CCc4nc(N5CCNCC5)ccc4C3)sc2n1 [Example 23-14, 3-amino-4,6-dimethyl-N-[(6S)-2-(piperazin-1-yl)-5,6,7,8-tetrahydroquinolin-6-yl]thieno[2,3-b]pyridine-2-carboxamide] | 1 to 50
Cc1nc2sc(C(=O)N[C@H]3CCc4nc(N5CCNCC5)ccc4C3)c(N)c2s1 [Example 23-9] | 50 to 200
Cc1ccc2c(N)c(C(=O)N[C@H]3CCc4nc(N5CC6CC(C5)N6)ccc4C3)sc2n1 [Example 23-10, 3-amino-N-[(6S)-2-{3,6-diazabicyclo[3.1.1]heptan-3-yl}-5,6,7,8-tetrahydroquinolin-6-yl]-6-methylthieno[2,3-b]pyridine-2-carboxamide] | 200 to 2000
